PMC12287522 (Scientific Reports, 2025)

How the values were obtained:
[1] = system: human colorectal cancer cell line (HCT116); experiment: MTT assay, HCT116 cell line; type: cell-based; conditions: for IC50: Homo sapiens, HCT-116, read-out: Anticancer activity (IC50) HCT116; for anticancer action against HCT116 (in words): SAR discussion
[2] = system: human lung adenocarcinoma cell line (A549); experiment: MTT assay, A549 cell line; type: cell-based; conditions: SAR discussion

Row | SMILES | IC50 [1] [µM] | anticancer action against HCT116 (in words) [1] | inhibitory potential against A549 (in words) [2]
1 | COc1cccc(NC(=O)Cn2cc(COc3ncnc4[nH]cnc34)nn2)c1 [5 g, 2-(4-(((9 H-purin-6-yl)oxy)methyl)-1 H-1,2,3-triazol-1-yl)-N-(3-methoxyphenyl)acetamide] | > 100 | did not exhibit anticancer action | 
2 | O=C(Cn1cc(COc2ncnc3[nH]cnc23)nn1)Nc1ccc(O)cc1 [5 h, 2-(4-(((9 H-purin-6-yl)oxy)methyl)-1 H-1,2,3-triazol-1-yl)-N-(4-hydroxyphenyl)acetamide] | 12.3 ± 0.52 | moderately inhibited | 
3 | Cc1cncc(NC(=O)Cn2cc(COc3ncnc4[nH]cnc34)nn2)c1 [5a, 2-(4-(((9 H-purin-6-yl)oxy)methyl)-1 H-1,2,3-triazol-1-yl)-N-(5-methylpyridin-3-yl)acetamide] | 6.23 ± 0.23 |  | 
4 | O=Cc1cccc(NC(=O)Cn2cc(COc3ncnc4[nH]cnc34)nn2)c1 [5b, 2-(4-(((9 H-purin-6-yl)oxy)methyl)-1 H-1,2,3-triazol-1-yl)-N-(3-formylphenyl)acetamide] | 15.6 ± 0.45 |  | 
5 | Cc1cccc(NC(=O)Cn2cc(COc3ncnc4[nH]cnc34)nn2)c1 [5c, 2-(4-(((9 H-purin-6-yl)oxy)methyl)-1 H-1,2,3-triazol-1-yl)-N-(m-tolyl)acetamide] |  |  | significantly reduced
6 | Cc1ccc(NC(=O)Cn2cc(COc3ncnc4[nH]cnc34)nn2)c(C)c1 [5d, 2-(4-(((9 H-purin-6-yl)oxy)methyl)-1 H-1,2,3-triazol-1-yl)-N-(2,4-dimethylphenyl)acetamide] |  | did not exhibit anticancer action | 
7 | O=C(Cn1cc(COc2ncnc3[nH]cnc23)nn1)Nc1ccc(F)c(Cl)c1 [5e, 2-(4-(((9 H-purin-6-yl)oxy)methyl)-1 H-1,2,3-triazol-1-yl)-N-(3-chloro-4-fluorophenyl)acetamide] | 6.11 ± 0.29 |  | 
8 | O=C(Cn1cc(COc2ncnc3[nH]cnc23)nn1)Nc1ccc([N+](=O)[O-])cc1 [5f, 2-(4-(((9 H-purin-6-yl)oxy)methyl)-1 H-1,2,3-triazol-1-yl)-N-(4-nitrophenyl)acetamide] | 13.9 ± 0.19 |  | significantly reduced
9 | O=C(Cn1cc(COc2ncnc3[nH]cnc23)nn1)NCc1ccc(O)cc1 [5i, 2-(4-(((9 H-purin-6-yl)oxy)methyl)-1 H-1,2,3-triazol-1-yl)-N-(4-hydroxybenzyl)acetamide] | 7.88 ± 0.6 | moderately inhibited | significantly reduced
10 | O=C(Cn1cc(COc2ncnc3[nH]cnc23)nn1)NCc1ccc(Cl)cc1 [5j, 2-(4-(((9 H-purin-6-yl)oxy)methyl)-1 H-1,2,3-triazol-1-yl)-N-(4-chlorobenzyl)acetamide] | 22.6 ± 0.38 |  | 
11 | COc1ccc(CNC(=O)Cn2cc(COc3ncnc4[nH]cnc34)nn2)cc1 [5k, 2-(4-(((9 H-purin-6-yl)oxy)methyl)-1 H-1,2,3-triazol-1-yl)-N-(4-methoxybenzyl)acetamide] |  | did not exhibit anticancer action | 
12 | COc1cccc2c1C(=O)c1c(O)c3c(c(O)c1C2=O)C[C@@](O)(C(=O)CO)C[C@@H]3O[C@H]1C[C@H](N)[C@H](O)[C@H](C)O1 [DXN, doxorubicin, reference compound] | 7.27 ± 0.39 |  | 
